Active and inactive are the calls of the source. The calls are words filed in the database; no cut-off is given here.
Key:
[1] = target: T1, Heat shock protein HSP 90-alpha (Homo sapiens, UniProt P07900)
Description: Inhibition of FITC-GDA binding to human HSP90-alpha incubated for 2 hrs by fluorescence polarization assay

[2] = target: T2, Heat shock protein HSP 90-beta (Homo sapiens, UniProt P08238)
Description: Inhibition of FITC-GDA binding to human HSP90-beta incubated for 2 hrs by fluorescence polarization assay

SK-BR-3 [3] = test: Induction of heat shock response in human SK-BR-3 cells at 1 uM incubated for 18 hrs by Western blot analysis; assay type: cell-based; conditions: sk-br-3, 18 h
SK-BR-3 [4] = test: Induction of heat shock response in human SK-BR-3 cells at 10 uM incubated for 18 hrs by Western blot analysis; assay type: cell-based; conditions: sk-br-3, 18 h
Endoplasmin = Endoplasmin (Canis lupus familiaris, UniProt P41148); test: Inhibition of FITC-GDA binding to dog GRP94 incubated for 2 hrs by fluorescence polarization assay
Sequence of Endoplasmin (P41148 whole entry): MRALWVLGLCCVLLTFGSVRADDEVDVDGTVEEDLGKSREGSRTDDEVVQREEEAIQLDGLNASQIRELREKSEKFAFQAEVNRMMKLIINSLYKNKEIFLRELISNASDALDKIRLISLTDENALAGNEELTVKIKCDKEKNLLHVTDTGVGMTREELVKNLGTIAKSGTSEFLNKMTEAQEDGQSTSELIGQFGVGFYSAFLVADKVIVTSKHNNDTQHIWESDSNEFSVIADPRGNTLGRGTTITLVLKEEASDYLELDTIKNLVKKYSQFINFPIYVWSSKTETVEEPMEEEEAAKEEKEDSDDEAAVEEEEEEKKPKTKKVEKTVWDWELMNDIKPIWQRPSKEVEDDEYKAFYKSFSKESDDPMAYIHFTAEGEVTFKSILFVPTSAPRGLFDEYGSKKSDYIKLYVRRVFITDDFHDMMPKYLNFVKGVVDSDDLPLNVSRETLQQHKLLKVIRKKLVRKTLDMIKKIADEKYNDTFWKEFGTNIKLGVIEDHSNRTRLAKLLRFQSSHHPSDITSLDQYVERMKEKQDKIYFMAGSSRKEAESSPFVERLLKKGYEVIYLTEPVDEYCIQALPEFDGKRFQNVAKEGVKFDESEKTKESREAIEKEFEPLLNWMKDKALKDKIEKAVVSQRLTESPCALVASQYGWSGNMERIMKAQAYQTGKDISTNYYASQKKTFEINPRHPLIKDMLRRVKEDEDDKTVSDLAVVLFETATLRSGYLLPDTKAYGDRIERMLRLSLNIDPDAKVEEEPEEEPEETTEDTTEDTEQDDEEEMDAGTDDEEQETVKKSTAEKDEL

[5] = target: T2, Heat shock protein HSP 90-beta; conditions: HCT-116, dose 300-1000 nM, time 24.0 hrs
[6] = tested on: Panel NCI-60 (60 carcinoma cell lines); test: Growth inhibition of human NCI60 cells incubated for 72 hrs by Cell Titer-Glo luminescent cell viability assay; assay type: functional
[7] = target: T2, Heat shock protein HSP 90-beta; conditions: HCT-116, dose 300-1000 nM, time 24.0 hrs; remark: listed apart in the source
[8] = target: T1, Heat shock protein HSP 90-alpha; conditions: HCT-116, dose 300-1000 nM, time 24.0 hrs
[9] = target: T2, Heat shock protein HSP 90-beta; conditions: HCT-116, dose 300-1000 nM, time 24.0 hrs; remark: listed apart in the source
[10] = target: T2, Heat shock protein HSP 90-beta; conditions: HCT-116, dose 300-1000 nM, time 24.0 hrs; remark: listed apart in the source
[11] = Growth inhibition of human LNCaP-LN3 cells incubated for 72 hrs by Cell Titer-Glo luminescent cell viability assay; assay type: functional
PC-3 = test: Growth inhibition of human PC-3 cells incubated for 72 hrs by Cell Titer-Glo luminescent cell viability assay; assay type: functional
UMUC3 = conditions: time 72 hrs

T2 sequence (P08238 whole entry): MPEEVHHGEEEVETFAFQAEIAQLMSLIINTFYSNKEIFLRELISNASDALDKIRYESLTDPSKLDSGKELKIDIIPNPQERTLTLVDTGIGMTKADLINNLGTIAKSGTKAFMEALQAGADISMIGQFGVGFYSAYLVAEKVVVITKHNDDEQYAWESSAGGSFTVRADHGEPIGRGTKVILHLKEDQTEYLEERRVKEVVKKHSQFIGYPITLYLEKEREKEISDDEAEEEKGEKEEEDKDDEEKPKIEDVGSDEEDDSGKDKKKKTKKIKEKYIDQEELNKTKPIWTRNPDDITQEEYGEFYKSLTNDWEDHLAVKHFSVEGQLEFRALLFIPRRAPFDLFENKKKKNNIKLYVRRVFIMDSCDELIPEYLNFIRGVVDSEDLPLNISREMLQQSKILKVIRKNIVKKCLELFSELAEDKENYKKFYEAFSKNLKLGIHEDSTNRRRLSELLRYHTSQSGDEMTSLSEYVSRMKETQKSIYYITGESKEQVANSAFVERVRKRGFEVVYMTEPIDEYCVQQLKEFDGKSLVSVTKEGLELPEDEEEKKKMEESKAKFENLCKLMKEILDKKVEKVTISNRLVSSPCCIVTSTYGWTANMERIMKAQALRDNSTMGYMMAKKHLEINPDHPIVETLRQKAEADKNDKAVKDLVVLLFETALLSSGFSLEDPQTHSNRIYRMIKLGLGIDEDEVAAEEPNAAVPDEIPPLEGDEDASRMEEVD

SMILES | IC50 [1] [nM] | IC50 [2] [nM] | further results
CCCc1cc2cc(-n3nc(C)c4c3CC(C)(C)CC4=O)cc(N(C)CCN(CC)CC)c2c(=O)[nH]1 | > 50000 | 4460 | 
COC1=C2C[C@@H](C)C[C@H](OC)[C@H](O)[C@@H](C)/C=C(\C)[C@H](OC(N)=O)[C@@H](OC)/C=C\C=C(/C)C(=O)NC(=CC1=O)C2=O [GELDANAMYCIN] |  |  | Activity (SK-BR-3 [3]): Toxic
CCCc1cc2cc(-n3nc(C)c4c3CC(C)(C)CC4=O)cc(N3CCC(O)CC3)c2c(=O)[nH]1 |  |  | Activity (SK-BR-3 [4]): Non-Toxic
CCc1cc2cc(-n3nc(C)c4c3CC(C)(C)CC4=O)cc(N[C@H]3CC[C@H](O)CC3)c2c(=O)[nH]1 | 180 | 68 | 
CCCc1cc2cc(-n3nc(C)c4c3CC(C)(C)CC4=O)cc(N3CCN(C)CC3)c2c(=O)[nH]1 | 8520 | 426 | 
CC(C)c1cc(C(=O)N2Cc3ccccc3C2)c(O)c2cnoc12 |  |  | IC50 (Endoplasmin): 8480 nM
CCCc1cc2cc(-n3nc(C)c4c3CC(C)(C)CC4=O)cc(N3CCOCC3)c2c(=O)[nH]1 | > 50000 | 121 | 
CCCCc1cc2cc(-n3nc(C)c4c3CC(C)(C)CC4=O)cc(N[C@H]3CC[C@H](O)CC3)c2c(=O)[nH]1 | > 50000 | 156 | 
CCCC1Cc2cc(-n3nc(C)c4c3CC(C)(C)CC4=O)cc(N[C@H]3CC[C@H](O)CC3)c2C(=O)N1 (stereo partly drawn) | 1600 | 33 | inhibition [5]: Active; GI50 [6]: < 100 nM; inhibition [7]: Active; inhibition [8]: inactive; inhibition [9]: Active; inhibition [10]: Active
Cc1nn(-c2cc(N[C@H]3CC[C@H](O)CC3)c3c(=O)[nH]c(C(C)(C)C)cc3c2)c2c1C(=O)CC(C)(C)C2 | > 50000 | > 50000 | 
CCCc1cc2cc(-n3nc(C)c4c3CC(C)(C)CC4=O)cc(N3CCNCC3)c2c(=O)[nH]1 | > 50000 | 4470 | 
Cc1nn(-c2cc(N[C@H]3CC[C@H](O)CC3)c3c(=O)[nH]c(C(C)C)cc3c2)c2c1C(=O)CC(C)(C)C2 | 173 | 51 | 
Cc1cn(-c2cc3c(c(C4CCCC4)c2)C(=O)NCC3)c2c1C(=O)CC(C)(C)C2 |  |  | IC50 (Endoplasmin): > 10000 nM
CCCc1cc2cc(-n3nc(C)c4c3CC(C)(C)CC4=O)cc(NC3CCN(C)CC3)c2c(=O)[nH]1 | 17100 | 513 | 
COCc1cc2cc(-n3nc(C)c4c3CC(C)(C)CC4=O)cc(N[C@H]3CC[C@H](O)CC3)c2c(=O)[nH]1 | 306 | 159 | 
Cc1nn(-c2cc(N[C@H]3CC[C@H](O)CC3)c3c(=O)[nH]c(C4CC4)cc3c2)c2c1C(=O)CC(C)(C)C2 | 1880 | 946 | 
CCCC1Cc2cc(-n3nc(C)c4c3CC(C)(C)CC4=O)cc(N3CCC(O)CC3)c2C(=O)N1 (stereo not drawn) | > 10000 | > 5000 | 
CCCc1cc2cc(-n3nc(C)c4c3CC(C)(C)CC4=O)cc(N[C@H]3CC[C@H](O)CC3)c2c(=O)[nH]1 |  |  | GI50 [6]: < 100 nM; GI50 [11]: 1070 nM; GI50 (PC-3): 1560 nM; GI50 (UMUC3): 450 nM
Cc1nn(-c2cc(N[C@H]3CC[C@H](O)CC3)c3c(=O)[nH]c(CC(C)C)cc3c2)c2c1C(=O)CC(C)(C)C2 | > 50000 | 264 | 
CCCc1cc2cc(-n3nc(C)c4c3CC(C)(C)CC4=O)cc(N3CCN(C(=O)OC(C)(C)C)CC3)c2c(=O)[nH]1 | > 50000 | 463 | 
Cc1nn(-c2cc(N[C@H]3CC[C@H](O)CC3)c3c(=O)[nH]c(CO)cc3c2)c2c1C(=O)CC(C)(C)C2 | 824 | 233 | 
Cc1cc2cc(-n3nc(C)c4c3CC(C)(C)CC4=O)cc(N[C@H]3CC[C@H](O)CC3)c2c(=O)[nH]1 | 294 | 101 | 

From ChEMBL document CHEMBL4706657, “The Development of Hsp90β-Selective Inhibitors to Overcome Detriments Associated with pan-Hsp90 Inhibition” (J Med Chem, 2021)
